How the values were obtained:
[1] = Absorption characteristics (water uptake / hygroscopic behaviour as a function of relative humidity); type: physicochemical; details: for change into a hydrate phase: with rising relative humidity (free base: above 50% r.h.); for hygroscopic characteristics / behaviour: absorption characteristics, FIG. 7 / FIG. 10
[2] = Humidity-dependent X-ray powder images (phase change); type: physicochemical
Description: The X-ray powder diagrams, with one exception, were recorded using an STOE Stadi P X-ray powder diffractometer. This diffractometer operates with CuKα1 radiation (gamma=1.5406 Angstroms) and a location-sensitive detector. The X-ray generator was operated at 40 mA and 40 kV.
The X-ray powder diagram of the monohydrate of the free base was recorded with a Bruker D8 Advance X-ray powder diffractometer on which a special air humidity cell made by MRI had been placed. The diagram was recorded at about 72% r.h. The Bruker D8 Advance operates with CuKα radiation (gamma=1.5418 Angstroms) and also a location-sensitive detector. The X-ray generator was operated at 30 mA and 40 kV.

Structure (SMILES) | water taken up ([1]; above 50% r.h., FIG. 4) | relative humidity up to which the anhydrous form is stable ([1]; anhydrous form, FIG. 4) | reversibility of the conversion into the monohydrate ([1]; relative humidity brought back to 50% or less) | change into a hydrate phase [1] | relative humidity at which water is absorbed ([1]; FIG. 7) [% r.h.] | hygroscopic characteristics / behaviour [1] | phase change ([2]; above 80% r.h.) | water uptake over relative humidity ([1]; whole range of relative humidities, FIG. 10) | phase change ([2]; humidity range from 10-90 r.h.)
CC#CCn1c(N2CCC[C@@H](N)C2)nc2c1c(=O)n(Cc1ncccc1C#N)c(=O)n2C [Example 2, 1-[(3-cyano-pyridin-2-yl)methyl]-3-methyl-7-(2-butyn-1-yl)-8-(3-(R)-amino-piperidin-1-yl)-xanthine] | about 4% | up to 50% | totally reversible | changes into a monohydrate |  |  |  |  | 
CC#CCn1c(N2CCC[C@@H](N)C2)nc2c1c(=O)n(Cc1ncccc1C#N)c(=O)n2C.Cl [Example 3, 1-[(3-cyano-pyridin-2-yl)methyl]-3-methyl-7-(2-butyn-1-yl)-8-[(R)-3-amino-piperidin-1-yl]-xanthine monohydrochloride] |  |  |  | no reversible change into a hydrate phase | > 80 | less marked hygroscopic characteristics | no phase change |  | 
CC#CCn1c(N2CCC[C@@H](N)C2)nc2c1c(=O)n(Cc1ncccc1C#N)c(=O)n2C.Cl.Cl [Example 4, 1-[(3-cyano-pyridin-2-yl)methyl]-3-methyl-7-(2-butyn-1-yl)-8-[(R)-3-amino-piperidin-1-yl]-xanthine-dihydrochloride] |  |  |  | no reversible change into a hydrate phase |  | unremarkable hygroscopic behaviour |  | takes up a certain amount of water continuously over the whole range of relative humidities | no phase change

Source: patent US8637530B2, “8-(3-amino-piperidin-1-yl)-xanthines, their preparation, and their use as pharmaceuticals” (Boehringer Ingelheim International GmbH, priority 2005, dated 2014)
